Measurements from article PMC3849192, “A Simple Method for Assessing Free Brain/Free Plasma Ratios Using an In Vitro Model of the Blood Brain Barrier” (PLoS ONE, 2013).
Where two headings read alike, the source gives them in different places.

Columns and labels:
[1] = Fraction unbound brain (fu,br), brain homogenate equilibrium dialysis
Experimental: The degree of brain binding was assessed by equilibrium dialysis. Brain homogenate (10%) was spiked with test compound at 1 µM in triplicate. […] The plate was then placed in a shaker/incubator to equilibrate for 18 hrs at 37°C. […] After the addition of 50 µl of buffer to the brain homogenate samples, 150 µl of acetonitrile was added to each sample. Finally, 50 µl of water was added to all buffer and brain homogenate samples. The plates were centrifuged and the supernatant analyzed by LC-MS/MS.

[2] = Fraction unbound brain (fu,br), brain slice method
Experimental: Rats (male Sprague-Dawley) were decapitated under isoflurane anesthesia and the brains were removed carefully and immersed in ice-cold oxygenated physiological buffer at pH7.4. A 6 mm coronal section was cut with a razor and mounted with cyanoacrylate glue onto the tray of the microslicer (DTK-Zero 1 Microslicer, Dosak) after which six to eight 300 µm coronal slices from striatal areas were prepared. […] The compounds were dissolved at 1 µM in the buffer and the solution was incubated with the slice for 5 h.
After 5 h, the brain slices were weighed and homogenized in 9 volumes (w/v) of ECF buffer with a sonicator (SONICS VCX 500 and VCX 130). The slice homogenates in ECF buffer were stored at −20°C prior to analysis. The concentrations of the test compound in the brain slice homogenate and in the ECF buffer was determined by LC-MS/MS.
The unbound volume of distribution Vu,brain, or free fraction fu,brain was calculated according to the following equations: [drawing 1] [drawing 2] where Cslice, CECF and V0 are amount of drug in the slice, the drug concentration in the ECF (representing the drug concentration in the brain ECF, i.e. the free concentration), and the water adhesion of the brain slice. V0 has been estimated using ^14C -inulin in a separate experiment in which brain slices were incubated for 1, 2, and 4 min. V0 was obtained from brain slice uptake – inulin time profile (apparent zero-time intercept).

[3] = system: in vitro BBB model (co-culture of bovine brain capillary endothelial cells and rat glial cells); test: In vitro BBB co-culture model, Cu,br/Cu,pl ratio; conditions: for In vitro Cu,br/Cu,pl Mean 1 h: 2 µM in luminal compartment, abluminal/luminal concentration at 1 h; for In vitro Cu,br/Cu,pl Mean steady-state: steady-state ratio computed from 1 h data with the blue-norna steady-state calculator
Experimental: Figure 1 Schematic diagram of the experimental protocol. After 12 days of coculture in cell culture medium, both compartments of the in vitro BBB model consisting of a coculture of brain capillary endothlial cells and rat primary glial cells were filled with Hepes-buffered Ringer’s solution and the compounds dissolved at 2 µM were added in the luminal compartment (i.e donor). The presence of glial cells in the abluminal compartment was used to reproduce the non specific binding to brain tisssue within the brain prenchyma in vivo. After 1 hour, aliquots were taken from both compartments. In vitro Cu,br/Cu,pl at 1 h were calculated by dividing the concentration in the abluminal compartment (∼Cu,br) by the concentration in the luminal compartment (∼Cu,pl) at 1 h. The experimental data at 1 h were computed using the blue-norna steady-state calculator to generate the in vitro steady-state Cu,br/Cu,pl.
One hour after the addition of compounds dissolved at 2 µM in the luminal (i.e upper) compartment, aliquots were taken from both compartments previously filled with Hepes-buffered Ringer’s solution at the beginning of the experiment. […] The concentrations in both compartments of the in vitro assay after 1 h were computed using […] blue-norna.com to generate the in vitro steady-state Cu,br/Cu,pl.
The method of Dehouck et al. was used with minor modifications (Fig. 1). Bovine brain endothelial cells isolated from capillary fragments were cocultured with primary mixed glial cells from newborn Sprague–Dawley rats. The glial cells were isolated according to the method of Booher and Sensenbrenner and cultured for 3 weeks, plated on the bottom of cell culture clusters containing six wells each. The endothelial cells were seeded onto collagen-coated polycarbonate cell culture inserts (4.7 cm^2) (Corning Incorp. NY, USA), which were placed in the wells containing glial cells. The medium used for the coculture was Dulbecco’s modified Eagle’s medium supplemented with 10% calf serum, 10% horse serum, 2 mmol/L glutamine, 50 mg/L gentamicin and 1 µg/L basic fibroblast growth factor (Sigma). The medium was changed every second day. Experiments were usually initiated after 12 days of co-culture.
To monitor the integrity of the endothelial cell monolayer, the marker molecule [^14C] sucrose was added to the solution at a concentration of 0.05 µCi/ml. At the start of the transport experiments, buffered Ringer’s solution (pH = 7.4) was added to wells with glial cells. Inserts with brain endothelial cells were placed in these wells and drug solutions at 2 µM were added to the donor compartment. The plates were incubated for 1 h in a polymix shaker at 37°C with a low shaking velocity. Aliquots were taken from the donor compartment in the beginning and at the end of the experiments. The receiver compartments were sampled at the end of the experiments.
The amount of radiotracer in the abluminal compartment was measured in a liquid scintillation analyser (Packard Instrument Company, Meriden, USA). […] The concentrations of the test compound in all samples were analysed by MS/MS.
The mean free brain/plasma ratios were calculated from three individual experiments. One hour ratios were calculated by dividing the drug concentration in the receiver compartment by the free drug concentration in the donor compartment after 1 h. The experimental data at one hour (i.e concentration in both compartment at the beginning of the experiment and after 1 h) were computed using the blue-norna® steady-state calculator (www.blue-norna.com) to predict the in vivo steady-state Cu,br/Cu,pl ratios. For further details on this calculation method see file S1.
The in vivo steady-state Cu,br/Cu,pl were predicted from the in vitro experimental data collected after one hour according to the following equation: […]
Cdonor, t and Creceiver, t are the concentration of drug in the donor and receiver chambers at time t.

[4] = In vivo brain exposure (Cu,br/Cu,pl) under steady-state like conditions after intravenous administration; conditions: rat, i.v. bolus plus infusion; for In vivo Cu,br/Cu,pl (homog.) Mean steady-state: Cbr/Cpl x fubr/fupl with fu,br from brain homogenate; for In vivo Cu,br/Cu,pl (slice) Mean steady-state: Cbr/Cpl x fubr/fupl with fu,br from brain slice
Experimental: Rat plasma was obtained from Sprague-Dawley rats in-house. Plasma from three individuals was pooled and mixed with up to 4 compounds with a concentration of 10 µM each (in 0.1% DMSO). A 48-well dialysis apparatus (AstraZeneca, Mölndal) was used to determine the plasma free fraction. The dialysis membrane (AstraZeneca, Mölndal) was conditioned in Milli/Q water before use. […] The samples were incubated on an orbital shaker (4 mm in diameter and 100 rpm) at 37 °C for 18 hrs. […] After plasma protein precipitation by the addition of 150 µl of acetonitrile to each plasma sample in order to precipitate plasma proteins. The plates were centrifuged and the supernatant analyzed by LC-MS/MS. The fu in plasma was calculated from the ratio of the MS-area of the compound in the buffer to the MS-area of the compound in the plasma.
The CNS exposure of 92 compounds (i.e 30 drugs and 62 proprietary compounds) was assessed under steady-state like conditions after intravenous administration. The time to approach steady-state (taken as at least 3.5 half-lives) was determined from prior studies of the pharmacokinetics of individual compounds after intravenous administration. The rats were put in restraint cages and cannulated via the tail vein. On the day of the experiment, the rats received a bolus injection followed by infusion. The infusion rate and infusion time were determined separately for each compound. The test formulation was administered using an infusion pump (CMA/100 or Univentor 400 microinjection pump).
Blood samples (400 µL) were collected by rapidly anaesthetizing the rats and keeping them under anesthesia with isofluran. Blood was collected either through heart puncture, from the tail vein or the orbital venous plexus and put into EDTA tubes, which were immediately placed on ice and centrifuged within 30 min at 4°C for 5 min at 2000 g to obtain plasma. The plasma was transferred by glass or plastic pipettes to 1.5 ml MTP system topaz vials and immediately frozen to −70°C or lower and stored at −20°C until assayed.
After blood collection, the whole brain was rapidly removed from the animal skull and weighed after which it was frozen and stored at −20°C. Before analysis with LC-MS/MS, the brain samples were sonicated (SONICS Vibracell VCX 130) in Ringer solution (2-fold the brain weight; e.g. 1 gram brain plus 2 mL Ringer).
The unbound brain exposure was assessed as Cu,br/Cu,pl, which is the free brain-free plasma concentration ratio. The Cu,br/Cu,pl ratios were obtained from total brain plasma ratios (Ctot,br/Ctot,pl) by using in vitro determined fu,br and fu,pl values according to: [drawing 4]
Brain concentrations were corrected for residual blood volume using 13 µl/g based on the vascular space of the marker [14C]-sucrose.

SMILES | fubrain (homog.) Mean ([1]; brain homogenate (10%), 1 µM, equilibrium dialysis 18 hrs at 37°C) | fubrain (slice) Mean ([2]; rat brain slices 300 µm, 1 µM, 5 h incubation) | In vitro Cu,br/Cu,pl Mean 1 h [3] | In vitro Cu,br/Cu,pl Mean steady-state [3] | In vivo Cu,br/Cu,pl (homog.) Mean steady-state [4] | In vivo Cu,br/Cu,pl (slice) Mean steady-state [4] | fubrain (homog.) Mean [1] | fubrain (slice) Mean [2]
CC(NC(C)(C)C)C(=O)c1cccc(Cl)c1 (stereo not drawn) [Buproprion] | 0.1710 | 0.1600 | 0.24 | 0.51 | 1.07 | 1.00 | – | –
Fc1ccc([C@@H]2CCNC[C@H]2COc2ccc3c(c2)OCO3)cc1 [Paroxetin] | – | – | 0.08 | 0.79 | 0.86 | 0.53 | 0.0039 | 0.0024
